Results reported in publication PMC5222549 (Journal of immunology (Baltimore, Md. : 1950), 2016).

T1: mCRT(1-351) (Mus musculus, UniProt P14211)
T1 sequence (P14211 18-368): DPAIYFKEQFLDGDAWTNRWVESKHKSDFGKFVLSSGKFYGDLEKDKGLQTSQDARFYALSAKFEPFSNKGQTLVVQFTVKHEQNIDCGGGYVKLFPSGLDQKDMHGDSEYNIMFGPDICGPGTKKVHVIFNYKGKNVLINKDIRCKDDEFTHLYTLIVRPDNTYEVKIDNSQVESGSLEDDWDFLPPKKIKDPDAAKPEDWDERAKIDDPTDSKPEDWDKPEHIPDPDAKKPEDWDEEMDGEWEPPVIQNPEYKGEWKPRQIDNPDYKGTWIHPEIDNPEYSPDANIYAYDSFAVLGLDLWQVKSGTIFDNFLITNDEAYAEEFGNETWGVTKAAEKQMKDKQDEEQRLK

T2: mCRT(1-351 ΔP) (Mus musculus, UniProt P14211, DEL204-300)
T2 sequence (P14211 with tags, fused parts or gaps DEL204-300): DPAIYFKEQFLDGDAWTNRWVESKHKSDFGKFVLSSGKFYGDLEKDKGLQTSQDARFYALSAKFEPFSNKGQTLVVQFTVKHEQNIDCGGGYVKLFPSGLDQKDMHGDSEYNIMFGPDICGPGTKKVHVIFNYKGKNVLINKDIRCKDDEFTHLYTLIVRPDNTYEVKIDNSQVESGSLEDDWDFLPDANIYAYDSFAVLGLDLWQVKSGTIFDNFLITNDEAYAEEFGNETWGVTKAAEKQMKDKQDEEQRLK

T3: mCRT(WT) (Mus musculus, UniProt P14211)
T3 sequence (P14211 18-416): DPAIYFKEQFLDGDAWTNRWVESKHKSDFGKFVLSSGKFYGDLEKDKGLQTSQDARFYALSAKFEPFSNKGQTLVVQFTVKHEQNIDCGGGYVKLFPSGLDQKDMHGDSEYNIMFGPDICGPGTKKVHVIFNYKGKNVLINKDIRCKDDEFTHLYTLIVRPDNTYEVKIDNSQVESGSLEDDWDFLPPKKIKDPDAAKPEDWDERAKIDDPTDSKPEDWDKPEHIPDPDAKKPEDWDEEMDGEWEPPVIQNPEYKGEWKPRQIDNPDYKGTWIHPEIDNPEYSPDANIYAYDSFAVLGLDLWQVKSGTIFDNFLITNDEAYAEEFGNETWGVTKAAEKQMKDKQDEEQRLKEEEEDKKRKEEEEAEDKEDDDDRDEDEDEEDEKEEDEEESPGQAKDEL

T4: mCRT(ΔP) (Mus musculus, UniProt P14211, DEL204-300)
T4 sequence (P14211 with tags, fused parts or gaps DEL204-300): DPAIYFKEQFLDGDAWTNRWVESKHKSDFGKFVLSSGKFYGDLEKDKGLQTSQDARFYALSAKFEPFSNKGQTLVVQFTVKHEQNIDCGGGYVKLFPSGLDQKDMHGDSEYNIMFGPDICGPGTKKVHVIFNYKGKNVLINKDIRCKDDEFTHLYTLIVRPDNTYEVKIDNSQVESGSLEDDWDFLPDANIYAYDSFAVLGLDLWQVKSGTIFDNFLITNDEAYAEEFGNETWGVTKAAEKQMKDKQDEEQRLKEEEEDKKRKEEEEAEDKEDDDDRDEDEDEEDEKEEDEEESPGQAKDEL

T5: GB1-mCRT(C) (Mus musculus, UniProt P14211)
T5 sequence (P14211 357-416): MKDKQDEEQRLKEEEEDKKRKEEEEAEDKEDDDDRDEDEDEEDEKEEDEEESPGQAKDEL

T6: ERp57 (UniProt P30101 25-505)
T6 sequence (looked up): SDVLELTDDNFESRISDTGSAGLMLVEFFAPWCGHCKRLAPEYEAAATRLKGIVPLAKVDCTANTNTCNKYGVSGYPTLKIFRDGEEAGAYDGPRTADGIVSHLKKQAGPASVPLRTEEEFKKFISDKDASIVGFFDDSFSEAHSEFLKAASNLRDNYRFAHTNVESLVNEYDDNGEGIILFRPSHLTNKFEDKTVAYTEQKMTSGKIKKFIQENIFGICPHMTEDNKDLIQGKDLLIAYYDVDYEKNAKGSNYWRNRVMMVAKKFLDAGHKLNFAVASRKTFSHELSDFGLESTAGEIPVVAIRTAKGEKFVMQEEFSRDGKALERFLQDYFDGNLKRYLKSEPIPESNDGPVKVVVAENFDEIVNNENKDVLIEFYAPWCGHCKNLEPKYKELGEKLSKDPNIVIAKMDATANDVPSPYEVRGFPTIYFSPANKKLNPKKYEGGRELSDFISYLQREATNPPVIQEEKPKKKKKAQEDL


Experiments:
mCRT(1-351) = molecular target: T1, mCRT(1-351); test: isothermal titration calorimetry, lipid vesicles titrated into […] protein; type: binding
mCRT(1-351 ΔP) = molecular target: T2, mCRT(1-351 ΔP); test: as above; type: binding
mCRT(WT) = molecular target: T3, mCRT(WT); test: as above; type: binding
mCRT(ΔP) = molecular target: T4, mCRT(ΔP); test: as above; type: binding
GB1-mCRT(C) = molecular target: T5, GB1-mCRT(C); test: as above; type: binding
[1] = molecular target: GB1-mCRT(P), the P-domain of murine calreticulin (residues 187-283) fused with the B1 domain of protein G (mouse); test: BLI
ERp57 = molecular target: T6, ERp57; test: BLI

| Molecule | Kd (mCRT(1-351)) [µM] | Kd (mCRT(1-351 ΔP)) [µM] | Kd (mCRT(WT)) [µM] | Kd (mCRT(ΔP)) [µM] | Kd (GB1-mCRT(C)) [µM] | Kd [1] [µM] | Kd (ERp57) [µM] |
| --- | --- | --- | --- | --- | --- | --- | --- |
| CCCCCCCC/C=C\CCCCCCCC(=O)O[C@H](COC(=O)CCCCCCCCCCCCCCC)COP(=O)([O-])OCC[N+](C)(C)C [POPC] | 53.4 ± 13.8 | 42.6 ± 11.5 | 158 ± 37.3 | 92.5 ± 11 |  |  |  |
| ERp57 (from UniProt P30101 25-505) (natural protein) |  |  |  |  |  | 0.101 |  |

Second part, the molecule after the results:

| Kd (mCRT(1-351)) [µM] | Kd (mCRT(1-351 ΔP)) [µM] | Kd (mCRT(WT)) [µM] | Kd (mCRT(ΔP)) [µM] | Kd (GB1-mCRT(C)) [µM] | Kd [1] [µM] | Kd (ERp57) [µM] | Molecule |
| --- | --- | --- | --- | --- | --- | --- | --- |
| 32 ± 5.54 | 20.2 ± 4.08 | 12.1 ± 4.49 | 7.5 ± 5.69 | 28.2 ± 4.3 |  |  | CCCCCCCC/C=C\CCCCCCCC(=O)O[C@H](COC(=O)CCCCCCCCCCCCCCC)COP(=O)(O)OC[C@H](N)C(=O)O [POPS] |
|  |  |  |  |  |  | 0.282 ± 0.038 | wild type murine calreticulin, mCRT(WT) (natural protein, mouse, UniProt P14211 18-416, looked up) DPAIYFKEQFLDGDAWTNRWVESKHKSDFGKFVLSSGKFYGDLEKDKGLQTSQDARFYALSAKFEPFSNKGQTLVVQFTVKHEQNIDCGGGYVKLFPSGLDQKDMHGDSEYNIMFGPDICGPGTKKVHVIFNYKGKNVLINKDIRCKDDEFTHLYTLIVRPDNTYEVKIDNSQVESGSLEDDWDFLPPKKIKDPDAAKPEDWDERAKIDDPTDSKPEDWDKPEHIPDPDAKKPEDWDEEMDGEWEPPVIQNPEYKGEWKPRQIDNPDYKGTWIHPEIDNPEYSPDANIYAYDSFAVLGLDLWQVKSGTIFDNFLITNDEAYAEEFGNETWGVTKAAEKQMKDKQDEEQRLKEEEEDKKRKEEEEAEDKEDDDDRDEDEDEEDEKEEDEEESPGQAKDEL |
